In US11160837B2, “Megamonas funiformis and applications thereof” (BGI SHENZHEN, priority 2017, dated 2021):

Test system: AF24-28AC
Experiment: Antibiotic sensitivity of AF24-28AC by the drug sensitive paper method
Type: cell-based, Megamonas funiformis
Settings: for Resistance / sensitivity of AF24-28AC to the antibiotic: drug sensitive paper method, result in words
Description: The sensitivity of AF24-28AC to 20 common antibiotics was tested by the drug sensitive paper method. 100 μl of AF24-28AC bacterial solution cultured to the logarithmic phase was spread plated. Antibiotic susceptibility papers (purchased from Hangzhou Microbial Reagent Co. LTD.) were affixed on the medium surface of plates, cultured at 37° C. for 48 hours, after which the size of inhibition zone was measured.

Compound: CN(C)[C@@H]1C(=O)C(C(N)=O)=C(O)[C@@]2(O)C(=O)C3=C(O)c4c(O)cccc4[C@@](C)(O)[C@H]3C[C@@H]12 [Acheomycin]
- Diameter of inhibition zone (antibiotic susceptibility papers on plates spread with AF24-28AC, 37° C., 48 hours): 4.2 cm

Compound: CCN1CCN(C(=O)N[C@@H](C(=O)N[C@@H]2C(=O)N3C(C(=O)O)=C(CSc4nnnn4C)CS[C@H]23)c2ccc(O)cc2)C(=O)C1=O [Cefoperazone]
- Resistance / sensitivity of AF24-28AC to the antibiotic: resistant

Compound: Cc1onc(-c2ccccc2)c1C(=O)N[C@@H]1C(=O)N2[C@@H]1SC(C)(C)[C@@H]2C(=O)O [Oxacillin]
- Resistance / sensitivity of AF24-28AC to the antibiotic: resistant

Compound: Penicillin
- Resistance / sensitivity of AF24-28AC to the antibiotic: resistant
